# Assay results taken from patent US20100173888A1 (Pfizer Inc, priority 2008, published 2010).
# Counter-ions that a name gives are not always drawn.
# Molecular target: human recombinant H-PGDS (Homo sapiens, UniProt O60760)
# Assay: Fluorescence intensity h-PGDS TBA enzyme assay (PGH2 depletion, MDA/TBA fluorescence)
# Format: biochemical
# Conditions: 1:175,000 human recombinant H-PGDS, 42 second reaction, 3-fold serial dilutions, highest concentration typically 1 μM
# Procedure: Fluoresecence Intensity h-PGDSTBA Enzyme Assay
# Prostaglandin D Synthase (PGDS) converts the substrate prostaglandin H2 (PGH2) to prostaglandin D2. The depletion of PGH2 was measured via an Fe(II) reduction of the remaining PGH2 to malondialdehyde (MDA) and 12-HHT. The enzyme assay is based on the quantitative formation of a fluorescent complex from the non-fluorescent compounds MDA and 2-thiobarbituric acid (TBA), substantially as described in U.S. patent application publication US-2004/152148 by Lombardt.
# The enzyme assay (31 μls) contained 100 mM Tris base pH 8.0, 100 μM MgCl2, 0.1 mg/ml IgG Rabbit serum, 5.0 μM PGH2 (Cayman; ethanol solution, #17020), 2.5 mM L-Glutathione (Sigma; reduced form. #G4251), 1:175,000 human recombinant H-PGDS (from 1 mg/ml), 0.5% DMSO and inhibitor (varying concentration). Three μls of diluted inhibitor (dissolved in DMSO) was plated into a 384-well assay plate followed by a 25 μl addition of an enzyme solution containing h-PGDS, Tris, MgCl2, IgG and L-Glutathione. After preincubation of inhibitor and enzyme solution for 10 minutes at room temperature, the reaction was initiated with a 3 μl addition of substrate solution in 10 mM HCl. The reaction was terminated after 42 second by the addition (3 μl) of stop buffer containing FeCl2 and citric acid. After addition of 45.5 μls of TBA plates were heated for one hour in a 70° C. oven. Plates were cooled at room temperature overnight and read on a plate reader the next day with excitation @ 530 nm and emission @ 565 nm.
# IC50' s of inhibitors were calculated with a 4-parameter fit using 11 inhibitor concentrations in duplicate with 3-fold serial dilutions. Controls on each plate included no inhibitor (zero % effect) and an inhibitor 10-fold in excess of its' IC50 (100% effect). The highest inhibitor concentration tested was typically 1 μM.
# Sequence of human recombinant H-PGDS (O60760 whole entry): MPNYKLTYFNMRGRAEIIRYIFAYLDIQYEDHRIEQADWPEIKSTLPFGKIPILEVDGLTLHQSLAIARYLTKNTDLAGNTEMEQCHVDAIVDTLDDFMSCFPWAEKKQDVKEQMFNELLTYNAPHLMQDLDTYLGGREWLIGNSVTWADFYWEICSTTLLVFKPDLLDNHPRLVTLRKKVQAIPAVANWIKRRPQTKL
row,IC50 [µM],Molecule
1,0.0103,"O=C(NC1CCC(O)(C(F)(F)F)CC1)c1ccc(-c2cccc(F)c2)nc1 (mixture of isomers) [Example 151, 6-(3-Fluorophenyl)-N-(trans 4-hydroxy-4-trifluoromethylcyclohexyl)nicotinamide and 6-(3-Fluorophenyl)-N-(cis 4-hydroxy-4-trifluoromethylcyclohexyl)nicotinamide]"
2,0.06,"CCN1CCC(CNC(=O)[C@H]2CC[C@H](NC(=O)c3ccc(-c4cccc(F)c4)nc3)CC2)C1 (relative stereo) [Example 113F, N-(trans-4-{[(1-ethylpyrrolidin-3-yl)methyl]carbamoyl}cyclohexyl)-6-(3-fluorophenyl)nicotinamide]"
3,0.0689,"O=C(N[C@H]1CC[C@@H](O)C1)c1ccc(-c2cccc(F)c2)nc1 (relative stereo) [Example 158, 6-(3-fluorophenyl)-N-[cis-3-hydroxycyclopentyl]nicotinamide]"
4,0.0137,"CNCCNC(=O)[C@H]1CCC[C@@H](NC(=O)c2ccc(-c3cccc(F)c3)nc2)C1 (relative stereo) [Example 189, 6-(3-Fluorophenyl)-N-cis-3-{([2-(methylamino)ethyl]carbamoyl}cyclohexyl]nicotinamide]"
5,0.0292,"O=C(N[C@@H]1CCC[C@H](C(=O)NC2CCNCC2)C1)c1ccc(-c2cccc(F)c2)nc1 (relative stereo) [Example 191, 6-(3-Fluorophenyl)-N-cis-3-(piperidin-4-ylcarbamoyl)cyclohexyl]nicotinamide hydrochloride]"
6,0.0096,CC(C)(CO)NC(=O)[C@H]1CCC[C@@H](NC(=O)c2ccc(-c3cccc(F)c3)nc2)C1 (relative stereo) [Example 196]
7,0.0191,CN(C)C(=O)CNC(=O)[C@H]1CCC[C@@H](NC(=O)c2ccc(-c3cccc(F)c3)nc2)C1 (relative stereo) [Example 198]
8,0.0218,"CC(O)[C@H]1CCC[C@@H](NC(=O)c2ccc(-c3cccc(F)c3)nc2)C1 (relative stereo) [Example 199, 6-(3-Fluorophenyl)-N-[(cis)-3-(1-hydroxyethyl)cyclohexyl]nicotinamide]"
9,0.189,"N[C@@H]1CCC[C@H](NC(=O)c2ccc(-c3cccc(F)c3)nc2)C1 (relative stereo) [Example 200, N-[cis-3-Aminocyclohexyl]-6-(3-fluorophenyl)nicotinamide]"
10,0.0171,O=C(CO)N[C@@H]1CCC[C@H](NC(=O)c2ccc(-c3cccc(F)c3)nc2)C1 (relative stereo) [Example 202]
11,0.0171,"COCC(=O)N[C@@H]1CCC[C@H](NC(=O)c2ccc(-c3cccc(F)c3)nc2)C1 (relative stereo) [Example 203, 6-(3-Fluorophenyl)-N-cis-[3-(2-methoxyacetylamino)cyclohexyl]nicotinamide]"
12,0.0687,CN1CCN(CC(=O)N[C@@H]2CCC[C@H](NC(=O)c3ccc(-c4cccc(F)c4)nc3)C2)CC1 (relative stereo) [Example 204]
13,0.0811,"CS(=O)(=O)N[C@@H]1CCC[C@H](NC(=O)c2ccc(-c3cccc(F)c3)nc2)C1 (relative stereo) [Example 207, 6-(3-Fluoro-phenyl)-N-cis-(3-methanesulfonylamino-cyclohexyl)-nicotinamide]"
14,0.0671,"CN1CCCCC1C(=O)N[C@H]1CC[C@@H](NC(=O)c2ccc(-c3cccc(F)c3)nc2)CC1 (relative stereo) [Example 217, 6-(3-fluorophenyl)-N-(cis-4-{[(1-methylpiperidin-2-yl)carbonyl]amino}cyclohexyl)nicotinamide]"
15,0.0327,"CN1CCCC(C(=O)N[C@H]2CC[C@@H](NC(=O)c3ccc(-c4cccc(F)c4)nc3)CC2)C1 (relative stereo) [Example 219, 6-(3-fluorophenyl)-N-(cis-4-{[(1-methylpiperidin-3-yl)carbonyl]amino}cyclohexyl)nicotinamide]"
16,0.0508,"CC(O)C(=O)N[C@H]1CC[C@@H](NC(=O)c2ccc(-c3cccc(F)c3)nc2)CC1 (relative stereo) [Example 222, 6-(3-fluorophenyl)-N-[cis-4-(lactoylamino)cyclohexyl]nicotinamide]"
17,0.0138,"C[C@]1(C(=O)O)CCC[C@@H](NC(=O)c2ccc(-c3cccc(F)c3)nc2)C1 (relative stereo) [Example 231, (1S*,3R*)-3-({[6-(3-Fluorophenyl)pyridin-3-yl]carbonyl}amino)-1-methylcyclohexane carboxylic acid]"
18,0.0041,"CCN1CCN(C(=O)[C@@]2(C)CCC[C@@H](NC(=O)c3ccc(-c4cccc(F)c4)nc3)C2)CC1 (relative stereo) [Example 233, N-{(1R*,3S*)-3-[(4-Ethylpiperazin-1-yl)carbonyl]-3-methylcyclohexyl}-6-(3-fluorophenyl)nicotinamide]"
19,0.0051,"CN(C)C(=O)[C@@]1(C)CCC[C@@H](NC(=O)c2ccc(-c3cccc(F)c3)nc2)C1 (relative stereo) [Example 237, N-[(1R*,3S*)-3-(Dimethylcarbamoyl)-3-methylcyclohexyl]-6-(3-fluorophenyl)nicotinamide]"
20,0.0274,"O=C(N[C@@H]1CCC[C@@H](C(=O)O)C1)c1ccc(-c2cccc(F)c2)nc1 (relative stereo) [Example 238A, trans-3-({[6-(3-Fluorophenyl)pyridin-3-yl]carbonyl}amino)cyclohexanecarboxylic acid]"

row,IC50 [µM],Molecule
1,0.0471,CN(C)C(=O)[C@@H]1CCC[C@@H](NC(=O)c2ccc(-c3cccc(F)c3)nc2)C1 (relative stereo) [Example 238]
2,0.0349,O=C(N[C@@H]1CCC[C@@H](C(=O)N2CCCC2)C1)c1ccc(-c2cccc(F)c2)nc1 (relative stereo) [Example 239]
3,0.0265,COCCNC(=O)[C@@H]1CCC[C@@H](NC(=O)c2ccc(-c3cccc(F)c3)nc2)C1 (relative stereo) [Example 240]
4,0.0154,O=C(N[C@@H]1CCC[C@@H](C(=O)N2CCOCC2)C1)c1ccc(-c2cccc(F)c2)nc1 (relative stereo) [Example 241]
5,0.0198,O=C(N[C@@H]1CCC[C@@H](C(=O)NCCCO)C1)c1ccc(-c2cccc(F)c2)nc1 (relative stereo) [Example 242]
6,0.0291,O=C(N[C@@H]1CCC[C@@H](C(=O)N2CCNCC2)C1)c1ccc(-c2cccc(F)c2)nc1 (relative stereo) [Example 243]
7,0.192,"N[C@H]1CCC[C@H](NC(=O)c2ccc(-c3cccc(F)c3)nc2)C1 (relative stereo) [Example 244, N-[trans-3-Aminocyclohexyl]-6-(3-fluorophenyl)nicotinamide]"
8,0.0216,O=C(CO)N[C@H]1CCC[C@H](NC(=O)c2ccc(-c3cccc(F)c3)nc2)C1 (relative stereo) [Example 245]
9,0.057,CN1CCN(CC(=O)N[C@H]2CCC[C@H](NC(=O)c3ccc(-c4cccc(F)c4)nc3)C2)CC1 (relative stereo) [Example 247]
10,0.0104,"CC(C)(O)C(=O)N[C@H]1CCC[C@H](NC(=O)c2ccc(-c3cccc(F)c3)nc2)C1 (relative stereo) [Example 248, 6-(3-Fluorophenyl)-N-trans-[3-(2-hydroxy-2-methylpropionylamino)cyclohexyl]nicotinamide]"
11,0.0139,"CS(=O)(=O)N[C@H]1CCC[C@H](NC(=O)c2ccc(-c3cccc(F)c3)nc2)C1 (relative stereo) [Example 249, 6-(3-Fluoro-phenyl)-N-trans-(3-methanesulfonylamino-cyclohexyl)-nicotinamide]"
12,0.0264,O=C(N[C@H]1CCC[C@H](CO)C1)c1ccc(-c2cccc(F)c2)nc1 (relative stereo) [Example 250]
13,0.0133,O=C(N[C@@H]1CCC[C@H](CO)C1)c1ccc(-c2cccc(F)c2)nc1 (relative stereo) [Example 251A]
14,0.0171,COCC(=O)NC[C@H]1CCC[C@@H](NC(=O)c2ccc(-c3cccc(F)c3)nc2)C1 (relative stereo) [Example 252]
15,0.0509,CN(C)CC(=O)NC[C@H]1CCC[C@@H](NC(=O)c2ccc(-c3cccc(F)c3)nc2)C1 (relative stereo) [Example 253]
16,0.0123,Cn1nccc1C(=O)NC[C@H]1CCC[C@@H](NC(=O)c2ccc(-c3cccc(F)c3)nc2)C1 (relative stereo) [Example 255]
17,0.0345,CC(=O)N1CC(NC[C@H]2CCC[C@@H](NC(=O)c3ccc(-c4cccc(F)c4)nc3)C2)C1 (relative stereo) [Example 257]
18,0.0292,O=C(N[C@@H]1CCC[C@H](CN2CCC2)C1)c1ccc(-c2cccc(F)c2)nc1 (relative stereo) [Example 258]
19,0.081,CC(C)(O)[C@@H]1CCC[C@H](NC(=O)c2ccc(-c3cccc(F)c3)nc2)C1 (relative stereo) [Example 262]

row,Molecule,IC50 [µM]
1,"6-(3-Fluorophenyl)-N-(cis-2-hydroxy-2,3-dihydro-1H-inden-1yl]nicotinamide [Example 130]",0.0152
